Compared with `COc1ccc(C(c2ccc(F)cc2)C(c2ccc(OC)cc2)C(F)(F)F)cc1` (stereo not drawn), `COc1ccc(-c2cc(=S)n(Cc3ccccc3)nc2-c2ccc(OC)cc2)cc1` is higher in melting point: 132 to 135 °C for the first, 135 to 149 °C for the second.

First: CCOC(=O)CCc1cc2cc(O)ccc2s1
Second: CCOC(=O)c1cc2cc(Br)ccc2s1
The melting point of the first is higher: 111 to 113 °C for the first, 94 to 95 °C for the second.

Compared with `CCCCc1oc2ccccc2c1-c1ncc(-c2ccc3c(Br)c(OCc4nnn[nH]4)ccc3c2)o1`, `COc1ccc(CO)cc1OCc1nc(-c2ccco2)oc1C` is lower in melting point: 235 to 237 °C for the first, 145 to 146 °C for the second.

First: CN1CCC(O)(c2cc(F)c(Br)cc2F)CC1
Second: CCCCC1(N(C)C)CCC(c2[nH]c3ccc(C(F)(F)F)cc3c2C)CC1 (stereo not drawn)
The melting point of the first is lower: 133 to 135 °C for the first, 141 to 146 °C for the second.

First: CCOC(=O)c1cc(CC)sc1Nc1cc(F)ccc1N
Second: CCOC(=O)c1[nH]nnc1Nc1ccc(C)cc1
The melting point of the first is lower: 100 to 101 °C for the first, 129 to 130 °C for the second.

First: COC1CCCC2=C(O)C3=C(C(=O)c4ccc(C(C)=O)cc4C3)C(O)C21 (stereo not drawn)
Second: COc1ccc(C2CC(OC(C)=O)CCC2[N+](=O)[O-])cc1OC (stereo not drawn)
The melting point of the first is higher: 223 to 226 °C for the first, 108 to 110 °C for the second.

First: CCCCCOc1ccc(CO)cc1OC(C)=O
Second: CCCCCCCCCCCCCCOc1ccc(CC(=O)O)cc1
The melting point of the first is lower: 35 to 36 °C for the first, 86 to 87 °C for the second.

First: Cn1c(CCNC(=O)c2cc(F)cc3c2OCOC3)nc(-c2ccncn2)cc1=O
Second: CNC(=O)c1ccc2c(c1Nc1nc(Nc3ccc4c(c3)CCCC(=O)N4C)ncc1Cl)OCO2
The melting point of the first is lower: 207 to 209 °C for the first, 254 to 256 °C for the second.

First: O=c1c2ccccc2n(SC(Cl)(Cl)Cl)c(=O)n1SC(Cl)(Cl)Cl
Second: NC(=O)c1cnn(-c2ccc(Cl)cc2Cl)c1C(F)(F)F
The melting point of the first is lower: 154 to 156 °C for the first, 191 to 193 °C for the second.

Compared with `CN(C)CCNC1=CC(=O)c2oc(-c3cc(F)c(F)c(F)c3)nc2C1=O`, `CN(CCCNC1=CC(=O)c2scnc2C1=O)CCCNC1=CC(=O)c2scnc2C1=O` is higher in melting point: 200 to 201 °C for the first, 223 to 224 °C for the second.

First: CC(=O)Nc1ccc([N+](=O)[O-])cc1OCC(O)CN1C(=O)CCC1=O (stereo not drawn)
Second: O=C(O)Cc1ccc([N+](=O)[O-])cc1CC(=O)O
The melting point of the first is lower: 157 °C for the first, 187 to 188 °C for the second.

First: Oc1cccc(C2CCCN2Cc2cccnc2)c1 (stereo not drawn)
Second: Nc1cccc(SCc2ccccc2)n1
The melting point of the first is higher: 129 to 131 °C for the first, 65 to 66 °C for the second.

First: OCc1cccc(Cc2c[nH]cn2)c1O
Second: OCCCN1c2ccccc2CCc2sccc21
The melting point of the first is higher: 152 to 155 °C for the first, 73 °C for the second.

First: Cc1cc(OCc2ccccc2)ccc1CC#N
Second: CON=C(c1ncon1)c1ccccc1COc1ccc(Cl)cc1
The melting point of the first is lower: 51 to 52 °C for the first, 107 to 108 °C for the second.

Compared with `COc1cc(O)c(C=O)c(-c2nc(C)no2)c1C`, `CCN(CC)C(=O)Cc1c(-c2ccc(F)cc2)nc2c(C)cc(C)nn12` is higher in melting point: 135 to 136 °C for the first, 139 to 143 °C for the second.

First: O=Cc1ccc(Br)cc1C=O
Second: CSc1nc(Cl)c2cc(Br)ccc2n1
The melting point of the first is lower: 97 to 100 °C for the first, 124 °C for the second.

Compared with `CC(C)(C)OC(=O)NC(Cc1ccccc1)C(O)C(O)C(Cc1ccccc1)NC(=O)OC(C)(C)C` (stereo not drawn), `COc1ccc(NC(=O)OC(C)(C)C)c(C(=O)NCCc2ccc(N=C(N)c3cccs3)cc2)c1` is lower in melting point: 208 to 212 °C for the first, 190 to 192 °C for the second.

Compared with `CN1C(=O)C(C)(C)C(=O)N(C)c2cc([N+](=O)[O-])ccc21`, `CCCN(CCC)C(=O)n1ccc(S(=O)(=O)c2c(C)cc(C)cc2C)n1` is lower in melting point: 224 to 225 °C for the first, 64 to 65 °C for the second.

First: CCOC(=O)c1c(Oc2cccc(Cl)c2)c2cc(C(c3ccc(Cl)cc3)c3cnc(-c4ccccc4)[nH]3)ccc2[nH]c1=O (stereo not drawn)
Second: O=C(NCc1cccc(C(F)(F)F)c1)c1ccc2n1Cc1ccccc1N(C(=O)CSc1ccc(Br)cc1)C2
The melting point of the first is higher: 189 °C for the first, 102 °C for the second.

First: N[C@@H](CCC(=O)NCCS(=O)(=O)O)C(=O)O
Second: CCOC(=O)C1OC1C(=O)Nc1ccccc1 (stereo not drawn)
The melting point of the first is higher: 202 to 204 °C for the first, 83 to 84 °C for the second.

Compared with `COC(=O)CCc1ccc(-n2ncn(-c3ccc(C(=N)NC(=O)OC)cc3)c2=O)cc1`, `COc1cc(C(=O)O)ccc1Cc1cccc2ccc(CCCC(=O)N3CCOCC3)cc12` is lower in melting point: 296 to 298 °C for the first, 160 to 161 °C for the second.

First: CNC(=O)c1cc2ccccc2c(-c2cccc(I)c2)n1
Second: CCCNc1nc2ccccn2c(=O)c1-c1ccc(NC2CCN(C(=O)OC(C)(C)C)C2)cc1 (stereo not drawn)
The melting point of the first is lower: 172 to 174 °C for the first, 187 to 190 °C for the second.

First: CC1(C(F)(F)F)CC(=O)CC(=O)C1
Second: CCOCc1nc2c(N)nc3c(c2n1CCCCS(=O)(=O)N(C)C)CCCC3
The melting point of the first is lower: 150 to 152 °C for the first, 165 to 167 °C for the second.

Compared with `CCOC(=O)c1c(CN(CC)CC)nc2cc(OC)c(OC)cc2c1-c1ccc(Cl)c(Cl)c1`, `COC1(c2cc(F)cc(OCc3ccc(-n4ccnc4C)cc3)c2)CCOCC1` is higher in melting point: 157 to 158 °C for the first, 168 °C for the second.

Reference: a melting point compilation (Tetko et al.; mined from patent text by program, amines drawn as free bases though some values may be those of a salt)
